Source: patent US9241964B2, “Composition from Sphaeranthus indicus and Garcinia mangostana for the control of metabolic syndrome” (LAILA NUTRACEUTICALS, priority 2009, dated 2016)

Experiments:
[1] = tested on: CD36; experiment: Immunoblot of CD36 in 3T3-L1 adipocytes; assay type: cell-based, mouse; settings: immunoblot normalized with actin
Source text: (§1) The inventors have then evaluated the modulation of metabolic biomarkers those are primarily responsible for the adipogenesis processes, insulin resistance in type 2 diabetes, obesity, metabolic syndrome and other metabolic disorders such as Peroxisome proliferator-activated receptor gamma (PPARγ), CD36, adipocyte fatty acid binding protein 4 (FABP4 or aP2), Perilipin, and beta-3 Adrenergic Receptor (β3AR) during adipogenesis process in 3T3-L1 adipocytes by ethyl actate extract (LI/DD-II/054A/01) of Sphaeranthus indicus and 7-hydroxyfrullanolide (LI054A01) using an immunoblot assay. […] The protein extracts were evaluated by immunoblot assay, and the immuno-reactive bands were developed with West-pico chemiluminescent substrate and the blot images were captured in a Kodak Image Station, normalized with expression of actin.
(§2) Experimental protocol: Mouse pre-adipocyte 3T3-L1 cells are maintained in Dulbecco's Modified Eagles Medium (DMEM) supplemented with 2 mM glutamine, 4.5 g/L glucose and 10% fetal bovine serum. […] Protein content was measured in Bradford method by using Coomassie blue dye and cell lysates were stored in aliquots at −80° C. until further use. […]
(§3) Inhibition of protein expression of biomarker molecules adipocytes in presence or absence of Sphaeranthus indicus extract LI/DD-II/054A/01 and 7-hydroxyfrullanolide (LI054A01) was evaluated in immunoblot assay. […]

[2] = tested on: Matrix Metalloproteinase-1 (MMP-1); experiment: Inhibition of MMP-1 production in PMA induced A2058 cells (ELISA); assay type: cell-based; settings: PMA induced A2058 human melanoma cells, 24 h, supernatant ELISA
Description: A2058 cells were induced with 50 nM PMA in absence or presence of different concentrations of LI/DD-II/054A/01 for 24 h as indicated. Secreted MMP-1 concentration in the cell free culture supernatants was measured using MMP-1 ELISA Development Kit (R&D System, Minneapolis, Minn., USA). The MMP-1 concentration in culture supernatants was estimated quantitatively from the standard curve generated using known concentrations of MMP-1. Percentage of MMP-1 inhibition at each concentration of test compound was calculated from the formula: {(Conc. of MMP-1 in PMA induced−Conc. of MMP-1 in the test well)×100}[…]Conc. of MMP-1 in PMA induced wells.
MMP-1 was evaluated in PMA induced human melanoma cells, A2058. Briefly, the cells were cultured in Dulbecco's Modified Eagles Medium (DMEM) with 2 mM Glutamine, 100 U/mL penicillin, […] streptomycin and 10% fetal bovine serum (Hyclone, Logan, Utah). Five thousand cells per well were seeded into a 96-well cell culture plate (Corning, USA) one day before the experiment. The culture media was replaced with fresh DMEM containing 10% fetal bovine serum. […] The MMP-1 concentration in culture supernatant was estimated quantitatively by interpolating the optical densities into the standard curve generated from known concentrations of MMP-1. […]

[3] = tested on: aP2/FABP4; experiment: Immunoblot of aP2/FABP4 in 3T3-L1 adipocytes; assay type: cell-based, mouse; settings: immunoblot normalized with actin
Source text: as §1, §2, §3

- IC50 of MMP-1 [2]: 1.2 µg/mL
SMILES: C=C1C(=O)O[C@H]2C3=C(C)CCC[C@]3(C)CC[C@@]12O [LI054A01, 7-α-hydroxy-4,11(13)-eudesmadien-12,6-olide]
- adipocyte CD36 protein level [1]: potently ameliorated
- aP2/FABP4 protein level [3]: potently ameliorated
